Legend:
GPX4-knockdown tumors = assay: GPX4-knockdown HT-1080 xenograft model; type: in vivo, athymic nude mice
Procedure: (§1) Fresh tumor tissues were fixed in 10% neutral buffered formalin overnight, washed once with PBS, and stored in 70% ethanol at 4° C. The tissues were dehydrated and embedded in paraffin by the Research Histology Core Laboratory (MD Anderson Cancer Center) according to standard protocols. Embedded tissues were sectioned at a thickness of 5 μm for H&E or immunohistochemistry (IHC) analysis. IHC analysis was performed as previously described (Gan, B., et al., Cancer Cell 18, 472-484 (2010); Gan, B., et al., J Cell Biol 175, 121-133 (2006)). Briefly, the primary antibodies, including ki-67 (1:500, 9027s, Cell Signaling Technology), cleaved-caspase 3 (1:500, 9661s, Cell Signaling Technology), or 4-HNE (1:400, ab46545, Abcam) were incubated overnight at 4° C. Staining was performed using the Vectastain elite ABC kit and DAB peroxidase substrate kit (Vector laboratories). Images were randomly taken from the […] (five images per tumor) at ×200 magnification using an Olympus BX43 microscope. All the xenograft experiments were performed in accordance with a protocol approved by the Institutional Animal Care and Use Committee and Institutional Review Board at The University of Texas MD Anderson Cancer Center. The study is compliant with all relevant ethical regulations regarding animal research. Female 4- to 6-week-old athymic nude mice (Foxn1^nu/Foxn1^nu) were purchased from the Experimental Radiation Oncology Breeding Core Facility at MD Anderson Cancer Center and housed in the Animal Care Facility at the Department of Veterinary Medicine and Surgery at MD Anderson. Cancer cell lines were suspended and counted in cold phosphate-buffered saline (PBS), and 5×10^6 HT-1080 or 1×10^7 NCI-H226 cells were injected into mice subcutaneously. When the tumor reached 50-100 mm^3, the mice were assigned randomly into different treatment groups. Brequinar or sulfasalazine was dissolved in dimethyl sulfoxide (DMSO) and diluted in PBS. Brequinar was intraperitoneally injected into mice at a dose of 30 mg/kg every three days. Sulfasalazine was intraperitoneally injected daily at a dose of 100 mg/kg. Liproxstatin-1 diluted in PBS was intraperitoneally injected daily at a dose of 10 mg/kg. The daily injection of brequinar, sulfasalazine, or liproxstatin-1 was continued until the endpoint as indicated in the corresponding figures. The tumor volume was measured every 3 days until the endpoint and calculated according to the equation volume=length×width^2×½.

solid tumors = conditions: oncology clinical trials; cited from earlier work
[1] = test system: GPX4^low NCI-H226 xenografts; assay: NCI-H226 xenograft model; type: in vivo, athymic nude mice; conditions: brequinar 30 mg/kg intraperitoneally every three days
Procedure: All the xenograft experiments were performed in accordance with a protocol approved by the Institutional Animal Care and Use Committee and Institutional Review Board at The University of Texas MD Anderson Cancer Center. The study is compliant with all relevant ethical regulations regarding animal research. Female 4- to 6-week-old athymic nude mice (Foxn1^nu/Foxn1^nu) were purchased from the Experimental Radiation Oncology Breeding Core Facility at MD Anderson Cancer Center and housed in the Animal Care Facility at the Department of Veterinary Medicine and Surgery at MD Anderson. Cancer cell lines were suspended and counted in cold phosphate-buffered saline (PBS), and 5×10^6 HT-1080 or 1×10^7 NCI-H226 cells were injected into mice subcutaneously. When the tumor reached 50-100 mm^3, the mice were assigned randomly into different treatment groups. Brequinar or sulfasalazine was dissolved in dimethyl sulfoxide (DMSO) and diluted in PBS. Brequinar was intraperitoneally injected into mice at a dose of 30 mg/kg every three days. Sulfasalazine was intraperitoneally injected daily at a dose of 100 mg/kg. Liproxstatin-1 diluted in PBS was intraperitoneally injected daily at a dose of 10 mg/kg. […] The tumor volume was measured every 3 days until the endpoint and calculated according to the equation volume=length×width^2×½.

GPX4^high HT-1080 cells = assay: Cell viability / cell death (ferroptosis) in HT-1080 cells; type: cell-based, human; conditions: wild-type (WT) cells, BQR 500 μM, 4 hours
Procedure: Briefly, cells were seeded onto 96-well plates at a density of 2×10^4 per well. The next day, cells were treated with GPX4 or DHODH inhibitors for 4 hours. Subsequently, cells exposed to 10 μl CCK-8 reagent (100 μl medium per well) for 1 hour at 37° C., 5% CO2 in an incubator. The absorbance at a wavelength of 450 nm was determined using a FLUOstar Omega microplate reader (BMG Labtech).
For propidium iodide-staining, cells were seeded at a density of 50% confluence into 12-well plates. The next day, cells were treated with different reagents. To measure cell death, the cells were collected (including floating dead cells), stained with 5 μg/ml propidium iodide and the percentage of the propidium iodide-positive dead cell population was analyzed using the flow cytometer BD Accuri C6 (BD Biosciences) and an FL2 detector. A minimum of 10,000 single cells were analyzed per well and all experiments were carried out at least in triplicate.

[2] = test system: GPX4^low patient-derived xenografts (PDXs); assay: GPX4^low patient-derived xenograft model; type: in vivo, NSG mice; conditions: brequinar 30 mg/kg intraperitoneally every three days
Source text: PDXs were generated in accordance with protocols approved by the Institutional Review Board at The University of Texas MD Anderson Cancer Center. Informed consent was obtained from the patients and the study is compliant with all relevant ethical regulations regarding research involving human participants. All the NOD scid gamma (NSG) mice were purchased from the Experimental Radiation Oncology Breeding Core Facility at MD Anderson Cancer Center and housed in the Animal Care Facility at the Department of Veterinary Medicine and Surgery at MD Anderson Cancer Center. PDX model used in this study was originally obtained from lung cancer PDX platform at MD Anderson Cancer Center. PDX experiments were performed as previously described (Liu, X., et al., Nat Cell Biol 22, 476-486 (2020)). Briefly, PDX tumors in cold DMEM media were minced into fragments 1-2 mm^3 in volume. Then each PDX tumor fragment was subcutaneously inoculated into the dorsal flank of NSG mice. When the tumors reached 50-100 mm 3 in volume, the mice were assigned randomly into different treatment groups for the treatment of brequinar, sulfasalazine, and/or liproxstatin-1 as described under cell line-derived xenograft model. The tumor volume was measured every 3 days until the endpoint and calculated according to the equation volume=length×width^2×½.

DHODH = DHODH (Homo sapiens, UniProt Q02127); conditions: cited from earlier work
DHODH, sequence (Q02127 whole entry, species assumed): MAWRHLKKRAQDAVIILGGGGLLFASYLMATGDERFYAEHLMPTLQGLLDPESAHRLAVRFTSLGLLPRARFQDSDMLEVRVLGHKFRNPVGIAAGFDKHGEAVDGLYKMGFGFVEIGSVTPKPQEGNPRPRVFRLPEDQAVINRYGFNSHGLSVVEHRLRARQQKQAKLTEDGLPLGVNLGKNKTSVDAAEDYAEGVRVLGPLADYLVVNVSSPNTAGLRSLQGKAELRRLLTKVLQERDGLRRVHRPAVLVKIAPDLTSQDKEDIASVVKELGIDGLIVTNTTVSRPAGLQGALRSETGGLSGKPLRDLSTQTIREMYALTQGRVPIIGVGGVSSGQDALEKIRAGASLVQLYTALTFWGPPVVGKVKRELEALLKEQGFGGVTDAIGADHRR

HT-1080 xenograft tumors = assay: HT-1080 cell line-derived xenograft model; type: in vivo, athymic nude mice
Procedure: as §1

[3] = brequinar 30 mg/kg intraperitoneally every three days

Question: Which results are given for Cc1c(-c2ccc(-c3ccccc3F)cc2)nc2ccc(F)cc2c1C(=O)O [brequinar]?
Answer: 4-HNE staining (lipid peroxidation marker) (GPX4-knockdown tumors; GPX4-knockdown tumors): dramatically increased; cleaved caspase-3 or Ki67 staining (GPX4-knockdown tumors; GPX4-knockdown xenograft samples): did not affect; tumor growth (sensitivity to DHODH inhibition) (GPX4-knockdown tumors; [3]): significantly sensitized; efficacy against solid tumors (solid tumors): lacks broad efficacy against solid tumors; tolerability in patients (solid tumors): well-tolerated; tumor growth [1]: significantly suppressed; effect on RSL3-induced ferroptosis (GPX4^high HT-1080 cells): promotes RSL3-induced ferroptosis; tumor growth [2]: significantly suppressed; DHODH inhibitor potency and specificity (DHODH): potent and specific; tumor growth (HT-1080 xenograft tumors; [3]): did not affect the growth; 4-HNE staining (lipid peroxidation marker) (HT-1080 xenograft tumors; control tumors): but not in control tumors; cleaved caspase-3 or Ki67 staining (HT-1080 xenograft tumors; control xenograft samples): did not affect

Source: patent publication US20240148757A1, “USE OF DIHYDROOROTATE DEHYDROGENASE (DHODH) INHIBITORS TO TARGET FERROPTOSIS IN CANCER THERAPY” (BOARD OF REGENTS, THE UNIVERSITY OF TEXAS SYSTEM, priority 2021, published 2024)
